These results are taken from PMC6053381, “Novel 2-phenyloxypyrimidine derivative induces apoptosis and autophagy via inhibiting PI3K pathway and activating MAPK/ERK signaling in hepatocellular carcinoma cells” (Scientific Reports, 2018).

pIC50: −log10 of the molar value.

For assay [1], the target named is CSF1R (Homo sapiens, UniProt P07333). The experiment in a line: Kinase profiling (Kinase-Glo Plus or ADP-Glo). It counts as biochemical. The settings on record: averages of two separate experiments. As for the experimental part: (§1) To better characterize kinase inhibition, the ability of E5 to inhibit a panel of purified kinases was assessed.
(§2) PDGFR kinase activity was measured using Caliper microfluidic mobility shift technology. Briefly, 2 μL compound solution (25 μM) in 25% DMSO per well were added into the 384 well microtiter plates. Then, 10 μL per well of enzyme solution (100 mM HEPES, 10 mM MgCl2, Brij35 (30%) 100 μL, 1 mM DTT, 20 ng enzyme) was added. After a brief centrifugation at 1,000 rpm, the kinase reactions were started by addition of 38 μL per well of peptide/ATP-solution (40 μM ATP, 6.5 μM peptide 5′-FAM-KKKKEEIYFFF-NH2, Tris-HCl buffer, pH 7.0) incubated at 30 °C for 60 min and stopped by the addition of 20 μL 35 mM EDTA per well. The electrophoretic separation of the phosphorylated and non-phosphorylated peptides was then carried out on LabChip EZ Reader II (Caliper Life Sciences). All other kinase reactions were carried out as previously reported using the Kinase-Glo Plus or ADP-Glo assay. Kinase inhibition rates were calculated per manufacturer’s instructions.
For orientation: Kinase-Glo measures the ATP left after a reaction by luminescence.

Assay [2] concerns the target FGFR1 (Homo sapiens, UniProt P11362). The experiment in a line: Kinase profiling (Kinase-Glo Plus or ADP-Glo). The assay is classed as biochemical. The conditions noted are these: averages of two separate experiments. As for the experimental part:
as §1, §2

For assay [3], the target named is FLT3 (Homo sapiens, UniProt P36888). Briefly: Kinase profiling (Kinase-Glo Plus or ADP-Glo). The assay is classed as biochemical. The settings on record: averages of two separate experiments. As for the experimental part: as §1, §2
Assay [4] addresses B-raf (Homo sapiens, UniProt P15056). The experiment in a line: Kinase profiling (Kinase-Glo Plus or ADP-Glo). It counts as biochemical. The conditions noted are these: averages of two separate experiments. As for the experimental part: as §1, §2
The target of assay [5] is ABL2 (Homo sapiens, UniProt P42684). The experiment in a line: Kinase profiling (Kinase-Glo Plus or ADP-Glo). It counts as biochemical. The settings on record: averages of two separate experiments. The procedure: as §1, §2
Assay [6] has as its target Raf-1 (Homo sapiens, UniProt P04049). The experiment in a line: Kinase profiling (Kinase-Glo Plus or ADP-Glo). It counts as biochemical. The settings on record: averages of two separate experiments. The procedure: as §1, §2
Assay [7] deals with ABL1 (Homo sapiens, UniProt P00519). The experiment in a line: Kinase profiling (Kinase-Glo Plus or ADP-Glo). The assay is classed as biochemical. The settings on record: averages of two separate experiments. The procedure: as §1, §2
The target of assay [8] is EGFR (Homo sapiens, UniProt P00533). The experiment in a line: Kinase profiling (Kinase-Glo Plus or ADP-Glo). It counts as biochemical. The conditions noted are these: averages of two separate experiments. The procedure: as §1, §2
In assay [9] the target is FGFR2 (Homo sapiens, UniProt P21802). The experiment in a line: Kinase profiling (Kinase-Glo Plus or ADP-Glo). It counts as biochemical. The conditions noted are these: averages of two separate experiments. The procedure: as §1, §2
Assay [10] has as its target LCK (Homo sapiens, UniProt P06239). Briefly: Kinase profiling (Kinase-Glo Plus or ADP-Glo). It counts as biochemical. The settings on record: averages of two separate experiments. As for the experimental part: as §1, §2
The target in assay [11] is BLK (Homo sapiens, UniProt P51451). The experiment in a line: Kinase profiling (Kinase-Glo Plus or ADP-Glo). The assay is classed as biochemical. The conditions noted are these: averages of two separate experiments. As for the experimental part: as §1, §2
Assay [12] addresses c-KIT (Homo sapiens, UniProt P10721). The experiment in a line: Kinase profiling (Kinase-Glo Plus or ADP-Glo). It counts as biochemical. The conditions noted are these: averages of two separate experiments. The procedure:
as §1, §2

Assay [13] has as its system HepG2 cells. The experiment in a line: Cell cycle distribution by flow cytometry (PI). It counts as cell-based. The settings on record: 24 h treatment. The procedure:
(§3) Cells were incubated with E5 for 24 h, after which cells were washed, stained and subjected to flow cytometry analysis. The cell cycle was analyzed by staining with propidium iodide (PI), and the extent of cell death/apoptosis was evaluated by double staining with annexin V-FITC and PI. The fluorescence was measured with a FACScan flow cytometer (Becton Dickinson, USA).
For orientation: In flow cytometry, cells or beads pass a laser one at a time.

Assay [14] concerns Bel7404 cells. Briefly: Cell cycle distribution by flow cytometry (PI). The conditions noted are these: 24 h treatment. It counts as cell-based. The procedure:
as §3

Assay [15] concerns HepG2 cells. The experiment in a line: Apoptosis by Annexin V/PI flow cytometry. The assay is classed as cell-based. The settings on record: 24 h, Annexin V/PI double staining. As for the experimental part:
(§4) We next explored the apoptosis-inducing ability of E5 in HCC cells. Bel7404 and HepG2 cells were treated with E5 for 24 h and stained with the fluorescent DNA-binding dye, Hoechst 33258. The cells were brightly stained in a dose-dependent manner, showing a typical morphological sign of apoptosis (Fig. 5A). […] Furthermore, E5 induced a specific cleavage of PARP and a decrease of pro-form of caspase-3, caspase-7 and caspase-9 (Fig. 5C). […] In addition, the pan-caspase inhibitor Z-VAD-FMK partially rescued the viability of HCC cells reduced by E5, implying that E5 might also induce non-apoptotic form of cell death (Fig. 5D).
as §3

In assay [16] the test system is Bel7404 cells. The experiment in a line: Apoptosis by Annexin V/PI flow cytometry. It counts as cell-based. The conditions noted are these: 24 h, Annexin V/PI double staining. The procedure: as §4, §3
Assay [17] relates to HepG2 cells. Briefly: Autophagy: LC3-I to LC3-II conversion, Western blot. The assay is classed as cell-based. The source says:
(§5) To investigate whether E5 triggers autophagic cell death in HCC cells, several characteristic events of autophagy were examined using different techniques. First, E5 stimulated LC3 puncta formation in HCC cells transfected with adenovirus expressing GFP-LC3 fusion protein as detected by fluorescence microscopy (Fig. 6A). […] Third, the effects of E5 on autophagy flux was examined by co-treatment of E5 with chloroquine (CQ), an inhibitor that prevents the formation of autolysosomes by inhibiting autophagosome-lysosome fusion and […] degradation. […] Fourth, E5 increased the expression of Atg5, which is essential for the elongation of autophagosomes (Fig. 6B), and the cell viability by E5 treatment was increased in HCC cells by knockdown of Atg5 (Fig. 6E). Finally, treatment with 3-methyladenine (3-MA), an autophagy inhibitor, partially reversed E5-induced cell death in HCC cells (Fig. 6F).
(§6) After treatment with E5 for 24 h, cells were lysed in RIPA cell lysis buffer. Equal amount of protein (30–40 μg) was separated on a 12% or 15% SDS-PAGE and transferred electrophoretically onto a 0.45 μm PVDF membrane. Then, the membrane was blocked for 2 h at room temperature with 5% non-fat dried milk in TBS buffer and incubated with appropriate antibodies at 1:1000 (overnight, 4 °C). […]
Background: A western blot detects proteins with antibodies after separation by electrophoresis.

Assay [18] deals with Bel7404 cells. Described as above. The assay is classed as cell-based.
Description: as §5, §6

Chain of CSF1R (P07333 20-972): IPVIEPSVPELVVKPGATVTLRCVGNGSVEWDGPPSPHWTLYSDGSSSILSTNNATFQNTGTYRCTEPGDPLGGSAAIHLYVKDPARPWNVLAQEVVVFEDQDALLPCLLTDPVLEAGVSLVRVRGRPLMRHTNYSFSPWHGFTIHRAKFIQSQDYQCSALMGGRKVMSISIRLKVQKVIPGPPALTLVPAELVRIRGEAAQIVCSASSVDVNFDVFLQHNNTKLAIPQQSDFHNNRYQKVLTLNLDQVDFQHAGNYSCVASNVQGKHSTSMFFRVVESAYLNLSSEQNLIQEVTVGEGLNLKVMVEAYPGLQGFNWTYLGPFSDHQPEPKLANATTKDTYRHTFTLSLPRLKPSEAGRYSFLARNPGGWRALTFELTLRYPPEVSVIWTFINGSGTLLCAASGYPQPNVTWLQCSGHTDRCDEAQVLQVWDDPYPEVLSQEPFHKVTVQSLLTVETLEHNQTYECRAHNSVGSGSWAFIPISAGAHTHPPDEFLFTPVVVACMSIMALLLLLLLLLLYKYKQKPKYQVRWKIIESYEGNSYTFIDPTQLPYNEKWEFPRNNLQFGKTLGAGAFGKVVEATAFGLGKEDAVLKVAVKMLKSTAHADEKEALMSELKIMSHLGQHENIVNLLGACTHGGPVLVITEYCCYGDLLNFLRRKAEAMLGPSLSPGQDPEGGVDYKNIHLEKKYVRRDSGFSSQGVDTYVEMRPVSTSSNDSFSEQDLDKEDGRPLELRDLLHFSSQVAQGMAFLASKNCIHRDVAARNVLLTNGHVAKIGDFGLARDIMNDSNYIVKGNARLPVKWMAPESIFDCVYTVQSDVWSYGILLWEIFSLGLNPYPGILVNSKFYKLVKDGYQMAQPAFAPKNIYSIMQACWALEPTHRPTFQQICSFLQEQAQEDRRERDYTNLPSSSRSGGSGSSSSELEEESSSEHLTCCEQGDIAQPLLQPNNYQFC
Chain of FLT3 (P36888 27-993, species assumed): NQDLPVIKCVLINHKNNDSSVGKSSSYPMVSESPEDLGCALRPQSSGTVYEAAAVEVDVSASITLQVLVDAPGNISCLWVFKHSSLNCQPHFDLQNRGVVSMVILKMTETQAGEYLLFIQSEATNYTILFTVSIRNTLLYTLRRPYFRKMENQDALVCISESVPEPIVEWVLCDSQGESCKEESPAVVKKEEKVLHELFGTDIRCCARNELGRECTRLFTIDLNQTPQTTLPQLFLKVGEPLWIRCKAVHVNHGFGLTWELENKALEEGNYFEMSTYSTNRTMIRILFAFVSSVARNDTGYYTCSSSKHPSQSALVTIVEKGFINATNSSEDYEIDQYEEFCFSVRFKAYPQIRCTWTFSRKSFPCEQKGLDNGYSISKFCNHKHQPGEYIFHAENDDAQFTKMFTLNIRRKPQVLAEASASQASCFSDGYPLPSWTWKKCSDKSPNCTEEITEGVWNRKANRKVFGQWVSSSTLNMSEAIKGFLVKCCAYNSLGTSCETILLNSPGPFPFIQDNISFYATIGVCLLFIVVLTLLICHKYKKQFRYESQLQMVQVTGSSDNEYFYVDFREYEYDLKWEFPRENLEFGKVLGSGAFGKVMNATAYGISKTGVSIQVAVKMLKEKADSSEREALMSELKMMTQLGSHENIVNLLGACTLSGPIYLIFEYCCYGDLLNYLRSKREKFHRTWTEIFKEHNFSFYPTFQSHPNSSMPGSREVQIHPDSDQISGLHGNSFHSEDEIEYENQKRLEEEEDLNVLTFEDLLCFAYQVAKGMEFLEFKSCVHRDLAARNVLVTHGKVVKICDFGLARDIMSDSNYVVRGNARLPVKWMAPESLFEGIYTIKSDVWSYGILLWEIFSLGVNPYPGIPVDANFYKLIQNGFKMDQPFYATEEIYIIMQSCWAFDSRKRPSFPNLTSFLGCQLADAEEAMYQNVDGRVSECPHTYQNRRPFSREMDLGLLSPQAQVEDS
Chain of B-raf (P15056 whole entry, species assumed): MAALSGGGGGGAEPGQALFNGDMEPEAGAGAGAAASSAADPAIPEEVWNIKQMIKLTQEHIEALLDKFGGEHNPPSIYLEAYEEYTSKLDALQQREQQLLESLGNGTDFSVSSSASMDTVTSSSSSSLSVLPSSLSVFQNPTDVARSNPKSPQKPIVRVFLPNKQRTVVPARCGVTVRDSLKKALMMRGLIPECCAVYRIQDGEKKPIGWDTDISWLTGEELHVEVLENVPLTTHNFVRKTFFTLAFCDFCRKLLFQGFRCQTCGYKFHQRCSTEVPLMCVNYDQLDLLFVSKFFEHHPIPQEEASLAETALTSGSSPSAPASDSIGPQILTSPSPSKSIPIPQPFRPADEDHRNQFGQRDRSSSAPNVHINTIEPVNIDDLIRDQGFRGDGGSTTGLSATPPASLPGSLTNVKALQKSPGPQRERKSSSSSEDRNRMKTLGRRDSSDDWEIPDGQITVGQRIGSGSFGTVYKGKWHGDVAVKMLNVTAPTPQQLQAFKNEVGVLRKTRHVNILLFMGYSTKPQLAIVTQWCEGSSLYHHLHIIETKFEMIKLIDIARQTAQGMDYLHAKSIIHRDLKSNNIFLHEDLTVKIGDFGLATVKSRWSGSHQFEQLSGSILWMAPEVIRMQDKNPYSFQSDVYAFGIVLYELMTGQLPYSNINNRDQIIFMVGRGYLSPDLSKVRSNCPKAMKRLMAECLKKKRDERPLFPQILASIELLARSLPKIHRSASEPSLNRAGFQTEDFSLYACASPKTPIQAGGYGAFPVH
Chain of Raf-1 (P04049 whole entry, species assumed): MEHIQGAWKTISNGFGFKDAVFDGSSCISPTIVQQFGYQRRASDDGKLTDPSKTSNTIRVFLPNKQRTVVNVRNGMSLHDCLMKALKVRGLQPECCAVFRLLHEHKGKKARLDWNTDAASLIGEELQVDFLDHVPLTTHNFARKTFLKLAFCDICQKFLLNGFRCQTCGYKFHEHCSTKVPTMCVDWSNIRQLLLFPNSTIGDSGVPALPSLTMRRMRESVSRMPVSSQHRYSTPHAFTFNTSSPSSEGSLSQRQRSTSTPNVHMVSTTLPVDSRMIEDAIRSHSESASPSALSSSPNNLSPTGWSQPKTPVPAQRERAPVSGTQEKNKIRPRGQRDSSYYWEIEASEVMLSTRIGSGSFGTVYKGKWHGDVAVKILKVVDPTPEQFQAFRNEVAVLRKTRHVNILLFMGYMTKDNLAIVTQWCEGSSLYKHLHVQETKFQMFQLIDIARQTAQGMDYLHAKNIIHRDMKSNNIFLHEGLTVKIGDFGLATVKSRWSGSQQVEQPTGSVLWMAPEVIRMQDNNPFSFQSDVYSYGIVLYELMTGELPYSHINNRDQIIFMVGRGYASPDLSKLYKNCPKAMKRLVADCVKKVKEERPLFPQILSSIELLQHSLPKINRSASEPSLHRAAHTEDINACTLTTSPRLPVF
Chain of ABL1 (P00519 whole entry, species assumed): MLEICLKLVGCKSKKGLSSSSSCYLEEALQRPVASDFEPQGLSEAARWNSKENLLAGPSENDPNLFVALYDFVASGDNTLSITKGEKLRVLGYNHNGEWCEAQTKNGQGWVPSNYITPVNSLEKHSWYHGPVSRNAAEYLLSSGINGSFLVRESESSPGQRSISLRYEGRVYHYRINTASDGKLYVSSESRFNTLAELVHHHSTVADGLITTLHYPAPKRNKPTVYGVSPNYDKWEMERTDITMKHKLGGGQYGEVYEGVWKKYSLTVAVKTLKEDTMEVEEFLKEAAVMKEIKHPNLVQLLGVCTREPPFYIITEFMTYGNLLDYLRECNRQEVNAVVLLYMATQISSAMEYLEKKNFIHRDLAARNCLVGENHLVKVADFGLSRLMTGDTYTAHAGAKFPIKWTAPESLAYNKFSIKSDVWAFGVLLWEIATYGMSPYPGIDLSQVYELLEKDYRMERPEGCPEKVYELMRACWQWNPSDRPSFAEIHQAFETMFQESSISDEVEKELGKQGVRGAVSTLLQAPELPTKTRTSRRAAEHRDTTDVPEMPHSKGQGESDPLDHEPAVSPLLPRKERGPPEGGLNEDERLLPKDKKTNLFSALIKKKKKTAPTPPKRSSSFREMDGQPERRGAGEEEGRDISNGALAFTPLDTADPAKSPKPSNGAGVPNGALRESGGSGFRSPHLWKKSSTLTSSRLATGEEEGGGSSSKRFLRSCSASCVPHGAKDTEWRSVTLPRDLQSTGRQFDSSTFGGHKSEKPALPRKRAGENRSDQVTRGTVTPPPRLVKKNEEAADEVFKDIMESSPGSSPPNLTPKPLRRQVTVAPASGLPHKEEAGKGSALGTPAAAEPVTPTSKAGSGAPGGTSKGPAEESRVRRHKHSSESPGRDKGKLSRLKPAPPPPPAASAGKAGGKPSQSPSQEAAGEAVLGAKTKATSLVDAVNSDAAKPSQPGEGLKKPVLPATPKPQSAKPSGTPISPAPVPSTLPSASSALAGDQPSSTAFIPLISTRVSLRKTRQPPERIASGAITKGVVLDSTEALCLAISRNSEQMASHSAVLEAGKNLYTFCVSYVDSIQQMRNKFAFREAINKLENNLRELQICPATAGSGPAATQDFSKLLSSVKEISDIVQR
Chain of BLK (P51451 whole entry, species assumed): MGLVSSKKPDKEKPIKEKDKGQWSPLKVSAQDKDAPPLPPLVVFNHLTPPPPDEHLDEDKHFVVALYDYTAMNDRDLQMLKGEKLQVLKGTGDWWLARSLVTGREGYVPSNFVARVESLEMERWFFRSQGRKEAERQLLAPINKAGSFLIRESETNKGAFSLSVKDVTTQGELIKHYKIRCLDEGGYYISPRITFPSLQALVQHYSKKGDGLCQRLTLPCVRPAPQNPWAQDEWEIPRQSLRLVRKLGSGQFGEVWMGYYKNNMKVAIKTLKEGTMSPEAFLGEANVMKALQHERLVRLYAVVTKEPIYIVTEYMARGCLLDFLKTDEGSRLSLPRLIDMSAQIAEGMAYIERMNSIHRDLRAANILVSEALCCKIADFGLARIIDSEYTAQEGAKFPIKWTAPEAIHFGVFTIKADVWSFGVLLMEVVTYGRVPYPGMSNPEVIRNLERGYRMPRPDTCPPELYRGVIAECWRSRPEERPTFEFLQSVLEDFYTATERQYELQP

As usually defined, the pIC50 is −log10 of the IC50, conventionally taken in molar units. Turning to `Cc1ccc(NC(=O)c2ccc(CN3CCN(C)CC3)cc2)cc1Oc1nccc(-c2cc3ccccc3o2)n1` [E5, N-(3-((4-(benzofuran-2-yl)pyrimidin-2-yl)oxy)-4-methylphenyl)-4-((4-methylpiperazin-1-yl)methyl)benzamide], the pIC50 in assay [1] was 5.95; in [2] it was < 4.60; in [3], < 4.60; in [4], < 4.60; in assay [5], 5.36; in [6], < 4.60. Moreover, the negative logarithm of the IC50 (pIC50) is 5.03 in [7]; < 4.60 in assay [8]; < 4.60 in assay [9]; < 4.60 in assay [10]; < 4.60 in assay [11]; 6.29 in assay [12]. In addition, the “IC50 CSF1R” value in assay [1] is “moderate inhibitory activity”. For the same compound, the “IC50 FLT3” value in assay [3] is given as “no inhibition”. The “Effect on cell cycle distribution” value in assay [13] and in [14] was “elicited G2/M phase arrest in a dose-dependent manner” throughout. In addition, the Apoptosis induction entry in assay [15] and in assay [16] was “induced apoptosis in a dose-dependent manner” each time. Moreover, the “Conversion of LC3-I to LC3-II” value in [17] is “induced the conversion of LC3-I to LC3-II in a dose- and time-dependent manner”; in assay [18] it was “induced the conversion of LC3-I to LC3-II in a dose- and time-dependent manner”.
